From patent US20050043314A1, “Substituted alkylaminopyridazinone derivatives, process for the preparation thereof and pharmaceutical composition containing the same” (priority 2001, published 2005) come the findings set out here.

For series [1], the system named is male Wistar rats. The experiment in a line: Vogel lick-conflict (drinking conflict) test. The series is classed as in vivo, rat. Conditions: intraperitoneally, 30 min prior to test; number of tolerated shocks. The method, then: Experiments were performed in a PC operated system (LIIKOSYS, Experimetria, Hungary) consisted of 8 test chambers (20 cm×20 cm×20 cm Plexiglas boxes) each of which was equipped with a water fountain system mounted at appropriate height on the wall of the chamber and metal grid floor for delivering electric shocks. 160-180 g male Wistar rats (N═8) were deprived of drinking water 48 h and fasted for 24 h prior to test. Test and reference compounds or vehicle were administered intraperitoneally, 30 min prior to test. All procedures were carried out in a quiet, air-conditioned room between 07:30 and 13:00 h at an ambient temperature of 23±2° C. At the beginning of the test the animals were placed in the test chamber where they had free access to drinking water for a 30 s grace period. After that, electric shocks (600 μA, 0.6 s) were applied through the drinking spout following every 20 licks during the 5 min test period (Vogel et al, 1971). Number of punished licks were recorded and stored by an IBM compatible computer. Means±SEM of numbers of tolerated shocks were calculated in each group, statistical analysis of data was performed by one way ANOVA followed by Duncan's test (STATISTICA). Diazepam [7-chloro-1,3-dihydro-1-methyl-5-phenyl-2H-1,4-benzodiazepine-2-one] was used as the reference substance.

For a further series, the system named is mouse. The experiment in a line: Inhibition of spontaneous motor activity (Dews instrument). The series is classed as in vivo. The conditions noted are these: per os, 60 min before test, 30 min recording; sedative effect. On the procedure:
The effect on spontaneous motor activity was investigated according to Borsy and co-workers [Borsy, J. et al, Arch. Int. Pharmacodyn., 124, 180-190 (1960)] in a ten channel Dews instrument, with 1-1 animal in each channel. Animals were placed into the instrument 60 min after per os treatment with either vehicle or test compound, and interruptions of infrared beams were recorded for 30 min. […] Diazepam was used as the reference substance.

For a further series, the system named is Male Sprague-Dawley rats. Description: Elevated plus-maze test in rats. Format: in vivo, rat. Conditions: 60 min after treatment, minimal effective dose regarding time spent in the open arms. An excerpt: Test have been performed as described by Pellow and co-workers [J.Neurosci. Methods, 14, 149 (1985)]. A wooden cross, 15 cm wide with 100 cm long arms was used for the experiments. The sides and ends of two opposite arms of the cross were equipped with 40 cm high walls, however, the arms were open to the […] central area (closed arms). The two other opposite arms were not encircled by walls (open arms).
Male Sprague-Dawley rats weighing 200-220 g were used for the experiments. The animals were placed in the central area of the equipment 60 min after treatment and the following four parameters have been observed for the 5 min test time: • time spent in the open arms, • time spent in the closed arms, • number of entries into the open arms, • number of entries into the closed arms.
The effect was expressed as percent increase in either the time (measured in sec) spent in the open arms or number of entries into the open arms. MEDs (minimal effective dose) were determined for each compound regarding the time spent in the open arms
Buspirone [8-{4-[4-(2-pyrimidinyl)-1-piperazinyl]butyl}-8-azaspiro[4,5]decane-7,9-dione] was used as the reference substance.

Series [2] deals with male Wistar rats. The experiment in a line: Effects on blood pressure in conscious, freely moving rats (radiotelemetry). The series is classed as in vivo, rat. An excerpt:
A 7 day postoperative recovery period was allowed.
None of the compounds examined reduced blood pressure of the test animals.

The term melting point denotes the temperature, or range, at which the solid turns liquid.

On to “5-{2-[4-(methoxytrifluoromethylphenyl)-piperazine-1-yl]-ethylamino}-2H-pyridazine-3-one trihydrochloride [Example 1]”, for which the “MED in mg/kg ip.” value in the series on male Wistar rats [1] came to 20.0 mg/kg.

Turning to `O=c1cc(NCCN2CCN(c3ccccc3)CC2)cn[nH]1` [Example 3, 5-{2-[4phenylpiperazine-1-yl]ethylamino}2H-pyridazine-3-one], the melting point is 147 to 149 °C. Besides, the “ID50 in mg/kg po.” value with mouse came to 60.0 mg/kg. Moreover, the “MED in mg/kg ip.” value in the series with male Wistar rats [1] was determined as 5.0 mg/kg. Further, the “MED in mg/kg po.” value in the series with Male Sprague-Dawley rats worked out at 0.1 mg/kg.

For the compound `O=c1cc(NCCN2CCN(c3ncccn3)CC2)cn[nH]1` [Example 5, 5-[2-(4-pyrimidin-2-ylpiperazine-1-yl)ethylamino]-2H-pyridazine-3-one], the melting point was 199 to 201 °C. In addition, the “ID50 in mg/kg po.” value in the series on mouse is over 100.0 mg/kg. In the series on male Wistar rats [1], the “MED in mg/kg ip.” value is recorded as 20.0 mg/kg.

Turning to `CN1C(=O)CN=C(c2ccccc2)c2cc(Cl)ccc21` [Diazepam, 7-chloro-1,3-dihydro-1-methyl-5-phenyl-2H-1,4-benzodiazepine-2-one, reference compound], the “ID50 in mg/kg po.” value with mouse was determined as 7.0 mg/kg. Moreover, in the series on male Wistar rats [1], the “MED in mg/kg ip.” value is reported as 5.0 mg/kg.

In the case of `O=c1cc(NCCN2CCN(c3ccccn3)CC2)cn[nH]1` [Example 4, 5-[2-(4-pyridin-2-ylpiperazine-;1-yl)ethylamino]-2H-pyridazine-3-one], the “MED in mg/kg ip.” value in the series on male Wistar rats [1] was 10.0 mg/kg.

`O=c1cc(NCCN2CCN(c3ccccc3F)CC2)cn[nH]1` [Example 2, 5-{2-[4-(2-fluorophenyl)piperazine-1-yl]ethyl-amino}-2H-pyridazine-3-one] registered a melting point of 103 to 105 °C. The “ID50 in mg/kg po.” value with mouse was determined as 21.0 mg/kg. The “MED in mg/kg ip.” value in the series on male Wistar rats [1] is reported as 20.0 mg/kg.

In turn, `O=c1cc(NCCN2CCN(c3ccc(F)cc3)CC2)cn[nH]1` [Example 7, 5-{2-[4-(4-fluorophenyl)piperazine-1-yl]ethyl-amino]-2H-pyridazine-3-one] displayed a melting point of 96 to 98 °C. In addition, the “MED in mg/kg ip.” value with male Wistar rats [1] is listed as 20.0 mg/kg. Moreover, in the series with male Wistar rats [2] (blood pressure compared to placebo, N.S. = Not significant statistically, two-way ANOVA with Scheffe's post hoc test), the “Results of statistical evaluation” value is listed as “N.S”. Besides, the “Mean blood pressure after treatment with test compound, Mean” value in the series on male Wistar rats [2] (mean arterial blood pressure for 6 hours after oral treatment, conscious rats) is given as 92.7 mmHg.
